Laboratory results taken from patent US9512142B2, “Tricyclic triazolic compounds” (LABORATORIOS DEL DR. ESTEVE S.A., priority 2013, dated 2016).
Where two headings read alike, the source gives them in different places.

Assays:
[1] = Kinetic solubility; assay type: physicochemical; details: kinetic from dmso stock, buffered aqueous solution at pH=7.4, 10 μL of 10 mM DMSO solution in 1 mL, stirred 4 hours, supernatant by liquid chromatography, read-out: Kin. Solub.
Protocol: To a buffered aqueous solution at pH=7.4 (1 mL), a 10 mM DMSO solution of the test compound (10 μL) was added and the mixture stirred for 4 hours. After centrifugation, the compound concentration in the supernatant was determined by liquid chromatography by fitting in a calibration curve of the compound.

[2] = target: T1, human sigma 1 receptor (Homo sapiens, UniProt Q99720); assay: Human sigma 1 receptor radioligand assay ([3H](+)-pentazocine, transfected HEK-293 membranes); assay type: binding
T1 construct: expressed in transfected cells; host or cells: HEK-293
Protocol: Human Sigma 1 Receptor Radioligand Assay
The assay was carried out with 7 μg of membrane suspension, 5 nM of [^3H](+)-pentazocine in either absence or presence of either buffer or 10 μM Haloperidol for total and non-specific binding, respectively. Binding buffer contained Tris-HCl 50 mM at pH 8. Plates were incubated at 37° C. for 120 minutes. After the incubation period, the reaction mix was then transferred to MultiScreen HTS, FC plates (Millipore), filtered and plates were washed 3 times with ice-cold 10 mM Tris-HCL (pH7.4). Filters were dried and counted at approximately 40% efficiency in a MicroBeta scintillation counter (Perkin-Elmer) using EcoScint liquid scintillation cocktail.

[3] = buffered aqueous solution, pH 7.4, aqueous buffer
[4] = 5 nM [3H](+)-pentazocine, transfected HEK-293 membranes, 37° C., 120 minutes, read-out: Ki

T1 sequence (Q99720 whole entry): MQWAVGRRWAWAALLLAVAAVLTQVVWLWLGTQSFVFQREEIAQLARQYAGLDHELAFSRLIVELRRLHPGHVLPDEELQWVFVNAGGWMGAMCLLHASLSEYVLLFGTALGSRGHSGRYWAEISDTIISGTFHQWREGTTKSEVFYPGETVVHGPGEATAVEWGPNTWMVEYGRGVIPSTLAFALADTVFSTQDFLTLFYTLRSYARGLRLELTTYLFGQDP

| solubility at 4 h [1, 3] [µM] | Ki [2, 4] [nM] | Compound | solubility at 4 h ([1]; aqueous buffer) [µM] | Ki [2] [nM] |
| --- | --- | --- | --- | --- |
| > 10 | 29.7 | Cl.Fc1ccccc1-c1nnn2c1CO[C@H]1CN(C[C@H]3CCOC3)C[C@@H]12 [Example 15, (5aS,8aS)-3-(2-fluorophenyl)-7-(((R)-tetrahydrofuran-3-yl)methyl)-4,5a,6,7,8,8a-hexahydropyrrolo[3,4-b][1,2,3]triazolo[1,5-d][1,4]oxazine hydrochloride] | – | – |
| > 10 | 97.6 | Cl.Fc1ccccc1-c1nnn2c1CO[C@@H]1CN(C[C@@H]3CCOC3)C[C@H]12 [Example 16, (5aR,8aR)-3-(2-fluorophenyl)-7-(((S)-tetrahydrofuran-3-yl)methyl)-4,5a,6,7,8,8a-hexahydropyrrolo[3,4-b][1,2,3]triazolo[1,5-d][1,4]oxazine hydrochloride] | – | – |
| > 10 | 49.2 | Cl.Fc1ccccc1-c1nnn2c1CO[C@H]1CN(C[C@@H]3CCOC3)C[C@@H]12 [Example 17, (5aS,8aS)-3-(2-fluorophenyl)-7-(((S)-tetrahydrofuran-3-yl)methyl)-4,5a,6,7,8,8a-hexahydropyrrolo[3,4-b][1,2,3]triazolo[1,5-d][1,4]oxazine hydrochloride] | – | – |
| > 10 | 171 | Cl.Fc1ccccc1-c1nnn2c1CO[C@@H]1CN(C[C@H]3CCOC3)C[C@H]12 [Example 18, (5aR,8aR)-3-(2-fluorophenyl)-7-(((R)-tetrahydrofuran-3-yl)methyl)-4,5a,6,7,8,8a-hexahydropyrrolo[3,4-b][1,2,3]triazolo[1,5-d][1,4]oxazine hydrochloride] | – | – |
| > 10 | 83.3 | CCOc1ccc(CN2C[C@@H]3[C@@H](C2)OCc2c(-c4ccccc4F)nnn23)cn1.Cl [Example 19, (5aR,8aR)-7-((6-ethoxypyridin-3-yl)methyl)-3-(2-fluorophenyl)-4,5a,6,7,8,8a-hexahydropyrrolo[3,4-b][1,2,3]triazolo[1,5-d][1,4]oxazine hydrochloride] | – | – |
| > 10 | 119 | Cc1cc(CN2C[C@@H]3OCc4c(-c5ccc(F)cc5F)nnn4[C@H]3C2)c(C)o1.Cl [Example 22, (5aS,8aS)-3-(2,4-difluorophenyl)-7-((2,5-dimethylfuran-3-yl)methyl)-4,5a,6,7,8,8a-hexahydropyrrolo[3,4-b][1,2,3]triazolo[1,5-d][1,4]oxazine hydrochloride] | – | – |
| > 10 | 41.9 | Cc1cc(CN2C[C@@H]3[C@@H](C2)OCc2c(-c4ccc(F)cc4F)nnn23)c(C)o1.Cl [Example 23, (5aR,8aR)-3-(2,4-difluorophenyl)-7-((2,5-dimethylfuran-3-yl)methyl)-4,5a,6,7,8,8a-hexahydropyrrolo[3,4-b][1,2,3]triazolo[1,5-d][1,4]oxazine hydrochloride] | – | – |
| > 10 | 20.4 | Cl.Fc1ccc(-c2nnn3c2CO[C@H]2CN(C4CCOCC4)C[C@@H]23)c(F)c1 [Example 27, (5aS,8aS)-3-(2,4-difluorophenyl)-7-(tetrahydro-2H-pyran-4-yl)-4,5a,6,7,8,8a-hexahydropyrrolo[3,4-b][1,2,3]triazolo[1,5-d][1,4]oxazine hydrochloride] | – | – |
| – | – | Cl.c1ccc(-c2nnn3c2CO[C@H]2CN(C4CCOCC4)C[C@@H]23)nc1 [Example 31, (5aS,8aS)-3-(pyridin-2-yl)-7-(tetrahydro-2H-pyran-4-yl)-4,5a,6,7,8,8a-hexahydropyrrolo[3,4-b][1,2,3]triazolo[1,5-d][1,4]oxazine hydrochloride] | > 10 | 241 |
| > 10 | 37 | Cl.c1ccc(CN2C[C@@H]3[C@@H](C2)OCc2c(-c4ccccn4)nnn23)cc1 [Example 32, (5aR,8aR)-7-benzyl-3-(pyridin-2-yl)-4,5a,6,7,8,8a-hexahydropyrrolo[3,4-b][1,2,3]triazolo[1,5-d][1,4]oxazine hydrochloride] | – | – |
| > 10 | 225 | Cl.c1ccc(CN2C[C@@H]3OCc4c(-c5ccccn5)nnn4[C@H]3C2)cc1 [Example 33, (5aS,8aS)-7-benzyl-3-(pyridin-2-yl)-4,5a,6,7,8,8a-hexahydropyrrolo[3,4-b][1,2,3]triazolo[1,5-d][1,4]oxazine hydrochloride] | – | – |
| > 10 | 166 | Cl.Fc1ccc(-c2nnn3c2CO[C@@H]2CN(Cc4ccc(F)nc4)C[C@H]23)c(Cl)c1 [Example 39, (5aR,8aR)-3-(2-chloro-4-fluorophenyl)-7-((6-fluoropyridin-3-yl)methyl)-4,5a,6,7,8,8a-hexahydropyrrolo[3,4-b][1,2,3]triazolo[1,5-d][1,4]oxazine hydrochloride] | – | – |
| > 10 | 33.3 | Cl.Fc1ccc(-c2nnn3c2CO[C@@H]2CN(CC4CCOCC4)C[C@H]23)c(Cl)c1 [Example 42, (5aR,8aR)-3-(2-chloro-4-fluorophenyl)-7-((tetrahydro-2H-pyran-4-yl)methyl)-4,5a,6,7,8,8a-hexahydropyrrolo[3,4-b][1,2,3]triazolo[1,5-d][1,4]oxazine hydrochloride] | – | – |
| > 10 | 20.5 | Cl.Fc1ccc(-c2nnn3c2CO[C@H]2CN(CC4CCOCC4)C[C@@H]23)c(Cl)c1 [Example 43, (5aS,8aS)-3-(2-chloro-4-fluorophenyl)-7-((tetrahydro-2H-pyran-4-yl)methyl)-4,5a,6,7,8,8a-hexahydropyrrolo[3,4-b][1,2,3]triazolo[1,5-d][1,4]oxazine hydrochloride] | – | – |
| > 10 | 15.1 | Cl.Clc1ccc(-c2nnn3c2CO[C@H]2CN(C4CCOCC4)C[C@@H]23)c(Cl)c1 [Example 46, (5aS,8aS)-3-(2,4-dichlorophenyl)-7-(tetrahydro-2H-pyran-4-yl)-4,5a,6,7,8,8a-hexahydropyrrolo[3,4-b][1,2,3]triazolo[1,5-d][1,4]oxazine hydrochloride] | – | – |
| > 10 | 26.8 | Cl.Fc1ccc(-c2nnn3c2CO[C@@H]2CN(CCC4CCOCC4)C[C@H]23)c(Cl)c1 [Example 47, (5aR,8aR)-3-(2-chloro-4-fluorophenyl)-7-(2-(tetrahydro-2H-pyran-4-yl)ethyl)-4,5a,6,7,8,8a-hexahydropyrrolo[3,4-b][1,2,3]triazolo[1,5-d][1,4]oxazine hydrochloride] | – | – |
| > 10 | 11.7 | Cl.Fc1ccc(-c2nnn3c2CO[C@H]2CN(CCC4CCOCC4)C[C@@H]23)c(Cl)c1 [Example 48, (5aS,8aS)-3-(2-chloro-4-fluorophenyl)-7-(2-(tetrahydro-2H-pyran-4-yl)ethyl)-4,5a,6,7,8,8a-hexahydropyrrolo[3,4-b][1,2,3]triazolo[1,5-d][1,4]oxazine hydrochloride] | – | – |
| > 10 | 112 | COc1ccc(CN2C[C@@H]3[C@@H](C2)OCc2c(-c4ccc(F)cc4Cl)nnn23)cn1.Cl [Example 49, (5aR,8aR)-3-(2-chloro-4-fluorophenyl)-7-((6-methoxypyridin-3-yl)methyl)-4,5a,6,7,8,8a-hexahydropyrrolo[3,4-b][1,2,3]triazolo[1,5-d][1,4]oxazine hydrochloride] | – | – |
| > 10 | 99.9 | COc1ccc(CN2C[C@@H]3OCc4c(-c5ccc(F)cc5Cl)nnn4[C@H]3C2)cn1.Cl [Example 50, (5aS,8aS)-3-(2-chloro-4-fluorophenyl)-7-((6-methoxypyridin-3-yl)methyl)-4,5a,6,7,8,8a-hexahydropyrrolo[3,4-b][1,2,3]triazolo[1,5-d][1,4]oxazine hydrochloride] | – | – |
| > 10 | 234 | COc1ccc(CN2C[C@@H]3[C@@H](C2)OCc2c(-c4ccc(F)cc4F)nnn23)cn1.Cl [Example 51, (5aR,8aR)-3-(2,4-difluorophenyl)-7-((6-methoxypyridin-3-yl)methyl)-4,5a,6,7,8,8a-hexahydropyrrolo[3,4-b][1,2,3]triazolo[1,5-d][1,4]oxazine hydrochloride] | – | – |
| > 10 | 272 | COc1ccc(CN2C[C@@H]3OCc4c(-c5ccc(F)cc5F)nnn4[C@H]3C2)cn1.Cl [Example 52, (5aS,8aS)-3-(2,4-difluorophenyl)-7-((6-methoxypyridin-3-yl)methyl)-4,5a,6,7,8,8a-hexahydropyrrolo[3,4-b][1,2,3]triazolo[1,5-d][1,4]oxazine hydrochloride] | – | – |
| > 10 | 16.8 | Cl.Clc1ccc(-c2nnn3c2CO[C@H]2CN(CCC4CCOCC4)C[C@@H]23)c(Cl)c1 [Example 53, (5aS,8aS)-3-(2,4-dichlorophenyl)-7-(2-(tetrahydro-2H-pyran-4-yl)ethyl)-4,5a,6,7,8,8a-hexahydropyrrolo[3,4-b][1,2,3]triazolo[1,5-d][1,4]oxazine hydrochloride] | – | – |
| > 10 | 71.4 | Cl.Clc1ccc(-c2nnn3c2CO[C@@H]2CN(CCC4CCOCC4)C[C@H]23)c(Cl)c1 [Example 54, (5aR,8aR)-3-(2,4-dichlorophenyl)-7-(2-(tetrahydro-2H-pyran-4-yl)ethyl)-4,5a,6,7,8,8a-hexahydropyrrolo[3,4-b][1,2,3]triazolo[1,5-d][1,4]oxazine hydrochloride] | – | – |
